Source: ChEMBL document CHEMBL2021885, “Triphenylbutanamines: kinesin spindle protein inhibitors with in vivo antitumor activity” (J Med Chem, 2012)

What was measured:
[1] = Antiproliferative activity against human hTERT-HME1 cells after 72 hrs by Alamar blue assay; format: cell-based
HCT-116 = test: Antiproliferative activity against human HCT116 cells after 72 hrs by Alamar blue assay; format: functional; conditions: HCT-116, 72 h
NCI-H1299 = test: Antiproliferative activity against human NCI-H1299 cells after 72 hrs by Alamar blue assay; format: functional; conditions: NCI-H1299, 72 h
BXPC-3 = test: Antiproliferative activity against human BxPC3 cells after 72 hrs by Alamar blue assay; format: functional; conditions: BXPC-3, 72 h
[2] = molecular target: T1, Kinesin-like protein KIF11 (Homo sapiens, UniProt P52732)
T1 sequence (P52732 whole entry): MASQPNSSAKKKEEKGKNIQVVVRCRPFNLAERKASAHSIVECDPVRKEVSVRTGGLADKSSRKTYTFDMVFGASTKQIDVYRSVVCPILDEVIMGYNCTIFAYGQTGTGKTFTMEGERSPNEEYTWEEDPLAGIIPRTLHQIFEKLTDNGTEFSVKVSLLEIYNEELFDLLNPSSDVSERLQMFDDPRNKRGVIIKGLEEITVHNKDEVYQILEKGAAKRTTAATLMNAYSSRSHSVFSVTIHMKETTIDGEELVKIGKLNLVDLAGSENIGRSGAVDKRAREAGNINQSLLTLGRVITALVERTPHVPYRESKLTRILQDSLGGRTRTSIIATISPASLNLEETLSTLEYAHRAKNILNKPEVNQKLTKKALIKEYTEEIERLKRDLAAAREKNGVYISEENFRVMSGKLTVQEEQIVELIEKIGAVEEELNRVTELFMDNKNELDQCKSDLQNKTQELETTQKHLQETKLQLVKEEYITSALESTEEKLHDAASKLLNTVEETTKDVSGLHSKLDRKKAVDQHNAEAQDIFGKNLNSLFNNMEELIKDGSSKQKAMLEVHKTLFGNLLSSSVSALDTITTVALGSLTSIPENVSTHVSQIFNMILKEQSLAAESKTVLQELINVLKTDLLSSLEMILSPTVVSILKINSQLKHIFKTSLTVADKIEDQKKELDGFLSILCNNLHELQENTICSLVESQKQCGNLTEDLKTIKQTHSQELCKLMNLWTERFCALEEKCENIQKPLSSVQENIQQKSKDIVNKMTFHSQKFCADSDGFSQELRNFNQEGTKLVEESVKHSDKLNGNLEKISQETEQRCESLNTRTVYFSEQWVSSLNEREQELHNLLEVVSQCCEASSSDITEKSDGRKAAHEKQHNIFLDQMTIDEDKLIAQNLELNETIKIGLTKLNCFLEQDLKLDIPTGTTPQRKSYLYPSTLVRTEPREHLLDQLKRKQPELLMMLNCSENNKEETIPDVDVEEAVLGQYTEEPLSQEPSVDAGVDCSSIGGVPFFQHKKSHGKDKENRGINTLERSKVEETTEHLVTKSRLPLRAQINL

K562 = test: cells; conditions: Homo sapiens, K562, 72 h
Description: Antiproliferative activity against human K562 cells after 72 hrs by Alamar blue assay

[3] = molecular target: T1, Kinesin-like protein KIF11; remark: listed apart in the source
[4] = Half life at pH 1.0 assessed as compound hydrolysis; format: physicochemical; conditions: buffer
Liver microsomes = test: Intrinsic clearance in human liver microsomes assessed as per mg of protein; format: ADME, Microsome
Liver = test: Intrinsic clearance in mouse liver microsomes assessed as per mg of protein; format: ADME, Microsome
[5] = Intrinsic clearance in human hepatocytes assessed as per million cells; format: ADME, cell-based, Hepatocyte
[6] = Apparent permeability of the compound by PAMPA method; format: ADME

## COc1ccc(C(SC[C@H](N)C(=O)O)(c2ccccc2)c2ccccc2)cc1
[1]
  GI50 at 72 h: 81 nM

## Cc1ccc(C(SC[C@H](N)C(=O)O)(c2ccccc2)c2ccccc2)cc1
HCT-116
  GI50: 130 nM
[1]
  GI50 at 72 h: 57 nM
NCI-H1299
  GI50: 242 nM
BXPC-3
  GI50: 284 nM
[2]
  Ki: 13.6 nM
K562
  GI50: 242 nM

## NCCSC(c1ccccc1)(c1ccccc1)c1cccc(C(F)(F)F)c1
[3]
  Ki: 353 nM

## Cc1cccc(C(SCCN)(c2ccccc2)c2ccccc2)c1
K562
  GI50: 698 nM

## N[C@@H](CNC(c1ccccc1)(c1ccccc1)c1ccccc1)C(=O)O
[4]
  t1/2: <= 2.9 hr

## N[C@H](CCC(c1ccccc1)(c1ccccc1)c1ccccc1)C(=O)O
HCT-116
  GI50: 472 nM
[1]
  GI50 at 72 h: 321 nM
NCI-H1299
  GI50: 1320 nM
BXPC-3
  GI50: 1120 nM
K562
  GI50: 776 nM

## N#Cc1cccc(C(SCCN)(c2ccccc2)c2ccccc2)c1
[3]
  Ki: 451 nM

## N[C@@H](CSC(c1ccccc1)(c1ccccc1)c1ccc2ccccc2c1)C(=O)O
HCT-116
  GI50: 153 nM
[1]
  GI50 at 72 h: 119 nM
NCI-H1299
  GI50: 227 nM
BXPC-3
  GI50: 245 nM
[2]
  Ki: 4.2 nM
K562
  GI50: 247 nM

## CC(=O)c1ccc(C(SC[C@H](N)C(=O)O)(c2ccccc2)c2ccccc2)cc1
[3]
  Ki: 272 nM
K562
  GI50: 4270 nM

## N[C@@H](CSC(c1ccccc1)(c1ccccc1)c1ccccc1)C(=O)O [S-TRITYL-L-CYSTEINE]
[1]
  GI50 at 72 h: 361 nM

## NCCCC(c1ccccc1)(c1ccccc1)c1cccc(Cl)c1
K562
  GI50: 596 nM

## NCCSC(c1ccccc1)(c1ccccc1)c1ccc(C(N)=O)cc1
K562
  GI50: 4340 nM

## Cc1cccc(C(CC[C@@H](N)C(=O)O)(c2ccccc2)c2ccccc2)c1
HCT-116
  GI50: 51 nM
[1]
  GI50 at 72 h: 26 nM
NCI-H1299
  GI50: 132 nM
BXPC-3
  GI50: 75 nM
Liver microsomes
  CLH: Stable
Liver
  CLH: Stable
[5]
  CLH: Stable

## NCCSC(c1ccccc1)(c1ccccc1)c1cccc(C(=O)O)c1
K562
  GI50: 2140 nM

## CSc1cccc(C(SCCN)(c2ccccc2)c2ccccc2)c1
[3]
  Ki: 520 nM
K562
  GI50: 1470 nM

## Cc1cccc(C(CC[C@H](N)C(=O)O)(c2ccccc2)c2ccccc2)c1
HCT-116
  GI50: 95 nM
[1]
  GI50 at 72 h: 42 nM
NCI-H1299
  GI50: 281 nM
BXPC-3
  GI50: 180 nM
Liver microsomes
  CLH: Stable
Liver
  CLH: Stable
[5]
  CLH: Stable

## N[C@@H](CSC(c1ccccc1)(c1ccccc1)c1cccc(O)c1)C(=O)O
[6]
  Papp: impermeable
[3]
  Ki: 48.8 nM
K562
  GI50: 2560 nM

## NCCSC(c1ccccc1)(c1ccccc1)c1ccccc1
HCT-116
  GI50: 1210 nM
[1]
  GI50 at 72 h: 1610 nM
NCI-H1299
  GI50: 2300 nM
BXPC-3
  GI50: 2460 nM
[3]
  Ki: 246 nM
[2]
  Ki: 152 nM
K562
  GI50: 2290 nM

## Cc1ccc(C(CC[C@@H](N)C(=O)O)(c2ccccc2)c2ccccc2)cc1
HCT-116
  GI50: 40 nM
[1]
  GI50 at 72 h: 27 nM
NCI-H1299
  GI50: 111 nM
BXPC-3
  GI50: 85 nM
K562
  GI50: 82 nM

## NCCOC(c1ccccc1)(c1ccccc1)c1ccccc1
[4]
  t1/2: 2.5 h

## NCCSC(c1ccccc1)(c1ccccc1)c1ccc(CO)cc1
K562
  GI50: 783 nM

## N[C@@H](CSC(c1ccccc1)(c1ccccc1)c1cccc(Cl)c1)C(=O)O
[3]
  Ki: 89.9 nM
K562
  GI50: 2400 nM

## CC(=O)c1ccc(C(SCCN)(c2ccccc2)c2ccccc2)cc1
K562
  GI50: 705 nM

## CS(=O)(=O)c1ccc(C(SCCN)(c2ccccc2)c2ccccc2)cc1
K562
  GI50: 2740 nM

## Cc1ccc(C(CCC(N)C(=O)O)(c2ccccc2)c2ccccc2)cc1 (racemic)
HCT-116
  GI50: 84 nM
[1]
  GI50 at 72 h: 44 nM
NCI-H1299
  GI50: 204 nM
BXPC-3
  GI50: 151 nM

## NCCNC(c1ccccc1)(c1ccccc1)c1ccccc1
[4]
  t1/2: 7 h
[3]
  Ki: 2660 nM

## CN(C)C(=O)c1cccc(C(SCCN)(c2ccccc2)c2ccccc2)c1
[3]
  Ki: 6060 nM
K562
  GI50: 2830 nM

## CN(C)C(=O)c1ccc(C(SCCN)(c2ccccc2)c2ccccc2)cc1
K562
  GI50: 2910 nM

## N#Cc1ccc(C(SCCN)(c2ccccc2)c2ccccc2)cc1
[3]
  Ki: 432 nM
K562
  GI50: 2180 nM

## NCCSC(c1ccccc1)(c1ccccc1)c1ccc(CN)cc1
K562
  GI50: 2590 nM

## NCCSC(c1ccccc1)(c1ccccc1)c1cccc(Cl)c1
[3]
  Ki: 298 nM
K562
  GI50: 1040 nM

## NCCSC(c1ccccc1)(c1ccccc1)c1cccc(F)c1
[3]
  Ki: 377 nM

## CC(=O)c1cccc(C(SC[C@H](N)C(=O)O)(c2ccccc2)c2ccccc2)c1
K562
  GI50: 964 nM

## CNC(=O)c1cccc(C(SCCN)(c2ccccc2)c2ccccc2)c1
K562
  GI50: 982 nM

## NCCSC(c1ccccc1)(c1ccccc1)c1cccc(OC(F)(F)F)c1
K562
  GI50: 1520 nM

## NC(CCC(c1ccccc1)(c1ccccc1)c1ccccc1)C(=O)O (racemic)
HCT-116
  GI50: 828 nM
[1]
  GI50 at 72 h: 494 nM
NCI-H1299
  GI50: 2820 nM
BXPC-3
  GI50: 1490 nM
K562
  GI50: 865 nM

## CC(C)c1cccc(C(SCCN)(c2ccccc2)c2ccccc2)c1
K562
  GI50: 581 nM

## NCCCC(c1ccccc1)(c1ccccc1)c1ccc(Cl)cc1
HCT-116
  GI50: 230 nM
[1]
  GI50 at 72 h: 308 nM
NCI-H1299
  GI50: 828 nM
BXPC-3
  GI50: 2310 nM
K562
  GI50: 337 nM

## COc1cccc(C(SCCN)(c2ccccc2)c2ccccc2)c1
[3]
  Ki: 150 nM

## N[C@@H](CCC(c1ccccc1)(c1ccccc1)c1ccccc1)C(=O)O
HCT-116
  GI50: 1600 nM
[1]
  GI50 at 72 h: 721 nM
NCI-H1299
  GI50: 4020 nM
BXPC-3
  GI50: 4860 nM
K562
  GI50: 2060 nM

## NC(=O)c1cccc(C(SC[C@H](N)C(=O)O)(c2ccccc2)c2ccccc2)c1
[6]
  Papp: impermeable
K562
  GI50: 16700 nM

## Cc1ccc(C(CCCN)(c2ccccc2)c2ccccc2)cc1
HCT-116
  GI50: 154 nM
[1]
  GI50 at 72 h: 601 nM
NCI-H1299
  GI50: 376 nM
BXPC-3
  GI50: 1600 nM

## NCCCC(c1ccccc1)(c1ccccc1)c1ccccc1
HCT-116
  GI50: 213 nM
[1]
  GI50 at 72 h: 572 nM
NCI-H1299
  GI50: 964 nM
BXPC-3
  GI50: 1220 nM

## CC(=O)NCc1ccc(C(SCCN)(c2ccccc2)c2ccccc2)cc1
K562
  GI50: 2900 nM

## Cc1ccc(C(CC[C@H](N)C(=O)O)(c2ccccc2)c2ccccc2)cc1
HCT-116
  GI50: 115 nM
[1]
  GI50 at 72 h: 49 nM
NCI-H1299
  GI50: 305 nM
BXPC-3
  GI50: 268 nM
K562
  GI50: 149 nM

## NCCSC(c1ccccc1)(c1ccccc1)c1cccc(CN)c1
K562
  GI50: 2020 nM

## CS(=O)(=O)c1cccc(C(SCCN)(c2ccccc2)c2ccccc2)c1
K562
  GI50: 2560 nM

## CNC(=O)c1ccc(C(SCCN)(c2ccccc2)c2ccccc2)cc1
K562
  GI50: 3950 nM

## CC(=O)c1cccc(C(SCCN)(c2ccccc2)c2ccccc2)c1
K562
  GI50: 706 nM

## CC(=O)NCc1cccc(C(SCCN)(c2ccccc2)c2ccccc2)c1
K562
  GI50: 2130 nM
